The text below walks through data of US5620997A, “Isothiazolones” (Warner-Lambert Company, priority 1995, dated 1997).

In data set [1] the target is T1, HIV-1 Nucleocapsid Protein (NCp7) (Human immunodeficiency virus type 1 group M subtype B, UniProt P12493).
T1 construct: The NCp7 protein containing 2 Zn-fingers and 2 Zn ions
As to the kind of experiment: Fluorescence-based (TSQ) assay of zinc ejection from purified HIV-1 NCp7. The conditions noted are these: 10 μM compound, 2.8 μM NCp7, 47 μM TSQ, pH 7.4, 26° C., 90 minutes. Format: biochemical. From the text:
The compounds of the present invention cause the extrusion of zinc from the nucleocapsid protein (NCp7) of HIV-1. The NC protein is highly conserved among all retroviruses (South T., Blake P., et al., Biochemistry, 1990;;29:7786) and is essential for viral infectivity (Aldovini A. and Young R., J. Virology, 1990;64:1920 and Gorelick R., Nigida S., et al., J. Virology, 1990;64:3207). The zinc is normally held in NC proteins by 1 or 2 zinc fingers. In the case of HIV-1, 2 zinc fingers are present (Summers M., South T., et al., Biochemistry, 1990;29:329) and are involved specifically with the PSI site on viral RNA which controls the packaging of viral RNA. Interference of this packaging causes the formation of non-infectious virions (Dannull J., Surovoy A., et al., EMBO, 1994;13:1525). It has previously been shown that compounds that cause zinc extrusion have potent anti-HIV activity in multiple cell lines and against all retroviruses (Rice W., Schaeffer C., et al., Nature, 1993;361:473).
A fluorescence-based assay has been developed to monitor the ejection of zinc from purified HIV-1 NCp7. The fluorophore, N-(6-methoxy-8-quinolyl)-p-toluenesulfonamide (TSQ), has an increased fluorescent signal upon bonding zinc ion in solution. The NCp7 protein containing 2 Zn-fingers and 2 Zn ions is incubated with drug causing the extrusion of Zn ions. The released Zn is then sequestered by the TSQ and the increased fluorescence monitored relative to control. The assay was performed as follows: 10 μM compound was added to 2.8 μM NCp7 and 47 μM TSQ in 20 μL of pH 7.4 buffer at 26° C. for 90 minutes. Fluorescence (excitation 355 nm emission 400 nm) was monitored versus time. Controls were the NCp7 under assay conditions without drug, and apo NCp7 (no Zn) with drug. The % Zn extrusion was calculated based on the actual fluorescence measured divided by the fluorescence of all theoretical Zn extruded (5.6 μM)×100.
Table 1 below presents the results of testing several of the invention compounds in zinc extrusion assay described above. The compounds were evaluated for their ability to cause the extrusion of zinc from nucleocapsid protein NCp7 (expressed as % relative to control).

Data set [2] addresses T2, rabbit reticulocyte 15-LO (Oryctolagus cuniculus, UniProt P12530).
T2 construct: rabbit reticulocyte 15-LO; from tissue; host or cells: rabbit reticulocytes
T2 sequence (P12530 1-663): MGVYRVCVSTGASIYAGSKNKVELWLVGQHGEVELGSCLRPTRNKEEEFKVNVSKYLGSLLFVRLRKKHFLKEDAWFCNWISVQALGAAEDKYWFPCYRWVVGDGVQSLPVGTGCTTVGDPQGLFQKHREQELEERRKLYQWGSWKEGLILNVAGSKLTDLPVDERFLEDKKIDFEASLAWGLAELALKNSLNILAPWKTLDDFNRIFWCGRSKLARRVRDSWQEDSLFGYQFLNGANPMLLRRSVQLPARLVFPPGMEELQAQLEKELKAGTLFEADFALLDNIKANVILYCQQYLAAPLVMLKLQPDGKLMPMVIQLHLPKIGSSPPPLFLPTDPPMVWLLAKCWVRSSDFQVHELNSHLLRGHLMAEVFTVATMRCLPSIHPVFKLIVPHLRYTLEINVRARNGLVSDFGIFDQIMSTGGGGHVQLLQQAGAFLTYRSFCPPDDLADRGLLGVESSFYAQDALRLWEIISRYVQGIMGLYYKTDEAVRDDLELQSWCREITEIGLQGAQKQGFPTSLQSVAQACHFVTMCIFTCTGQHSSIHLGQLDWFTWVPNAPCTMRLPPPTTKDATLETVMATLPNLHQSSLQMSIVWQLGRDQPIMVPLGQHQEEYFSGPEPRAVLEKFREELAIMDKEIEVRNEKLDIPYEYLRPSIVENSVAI
As to the kind of experiment: HPLC Assay of 15-LO Inhibition. Format: biochemical. The conditions noted are these: HPLC method; linoleic acid substrate, 4° C., 10 minutes. As for the experimental part:
(§1) The isothiazolones of Formula I are also effective for treating inflammation and atherosclerosis. A characteristic feature of atherosclerosis is the accumulation of cholesteryl ester engorged from foam cells. Foam cells are derived from circulating monocytes which invade artery walls in response to hypercholesterolemia, and mature into tissue macrophages. […] Specifically, representative compounds were evaluated by the methods described by Auerbach, et al., Analytical Biochemistry, 1992;201:375-380. Two in vitro assays were utilized, both utilizing rabbit reticulocyte 15-LO, and linoleic acid as substrate, to enzymatically produce a peroxide oxidation product known as 13(S)-HPODE. N-Benzoyl leucomethylene blue was utilized as a colorimetric reagent for detection and quantification of the peroxide formation. Also, HPLC was utilized to quantify the oxidation following incubation at 4° C. for 10 minutes.
(§2) Table 3 gives the concentration of compound required to inhibit 50% of the activity of 15-LO (IC50) when measured by the HPLC method of Auerbach, et al. Table 4 gives the percent inhibition of 15-LO activity when evaluated by the colorimetric method.

A short description of data set [3]: CEM cell assay, toxicity (growth inhibition). Format: cell-based. The conditions noted are these: human, cem cells; Toxic concentration which inhibits the growth of cells 50% relative to control; read-out: CEM Cell Assay TC50. As for the experimental part: T4 lymphocytes (CEM cell line) are exposed to HIV at a virus to cell ratio approximately 0.05, and plated along with noninfected control cells in 96-well microliter plates. Candidate agent is dissolved in dimethyl sulfoxide (unless otherwise noted), then diluted 1:200 in cell culture medium. Further dilutions (half-log10) are prepared before adding to an equal volume of medium containing either infected or noninfected cells. Cultures are incubated at 37° in a 5% carbon dioxide atmosphere for 6 or 7 days. The tetrazolium salt, XTT, is added to all wells, and cultures are incubated to allow formazan color development by viable cells J. National Cancer Institute, 1989;81:577-586. Individual wells are analyzed spectrophotometrically to quantitate formazan production, and in addition are viewed microscopically for detection of viable cells confirmation of protective activity. Drug-tested virus-infected cells are compared with drug-treated noninfected cells and with other appropriate controls (untreated infected and untreated noninfected cells, drug-contain wells without cells, etc.) on the same plate. Data are reviewed in comparison with other tests done at the same time and a determination about activity is made.

The test system of another data set is HIV. As to the kind of experiment: CEM cell assay, anti-HIV activity (XTT, protection from viral cytopathic effects). The data set is classed as cell-based. The conditions noted are these: Human immunodeficiency virus 1, CCRF-CEM; Effective concentration which protects cells from viral cytopathic effects. From the text:
The test systems utilized to establish the cellular antiviral activity of the isothiazolones of Formula I are well recognized in the art and are routinely employed for such purpose. For example, the assay utilized to evaluate the compounds activity against the HIV virus is that employed by the U.S. National Cancer Institute as described by Weislow O. S., et al., J. Natl. Cancer Inst., 1989;81:577-586, incorporated herein by reference.
The procedure is designed to detect agents acting at any stage of the virus reproductive cycle. The assay basically involves the killing of T4 lymphocytes by HIV. Small amounts of HIV are added to cells, and at least two complete cycles of virus reproduction are necessary to obtain the required cell killing. Agents which interact with virions, cells, or virus gene-products to interfere with viral activities will protect cells from cytolysis. The system is automated in several features to accommodate large numbers of candidate agents, and is generally designed to detect anti-HIV activity. However, compounds which degenerate or are rapidly metabolized in the culture conditions may not show activity in this screen.
Yet another test system employed to determine antiviral activity is called the CEM cell assay.
T4 lymphocytes (CEM cell line) are exposed to HIV at a virus to cell ratio approximately 0.05, and plated along with noninfected control cells in 96-well microliter plates.
Candidate agent is dissolved in dimethyl sulfoxide (unless otherwise noted), then diluted 1:200 in cell culture medium. Further dilutions (half-log10) are prepared before adding to an equal volume of medium containing either infected or noninfected cells.
Cultures are incubated at 37° in a 5% carbon dioxide atmosphere for 6 or 7 days. The tetrazolium salt, XTT, is added to all wells, and cultures are incubated to allow formazan color development by viable cells J. National Cancer Institute, 1989;81:577-586. Individual wells are analyzed spectrophotometrically to quantitate formazan production, and in addition are viewed microscopically for detection of viable cells confirmation of protective activity.
Drug-tested virus-infected cells are compared with drug-treated noninfected cells and with other appropriate controls (untreated infected and untreated noninfected cells, drug-contain wells without cells, etc.) on the same plate. Data are reviewed in comparison with other tests done at the same time and a determination about activity is made.

Data set [4] addresses T2, rabbit reticulocyte 15-LO. As to the kind of experiment: Colorimetric Assay of 15-LO Inhibition. Format: biochemical. The conditions noted are these: colorimetric method. As for the experimental part:
as §1, §2

Each structure is given as a SMILES string. pEC50, pIC50: −log10 of the molar value.

As to `O=c1c2ccccc2sn1-c1ccccc1` [Example 15, 2-Phenyl-3-oxo-3h-benz[d]isothiazole], in data set [1], the “% Zn Extrusion Relative to Control” value was found to be 97%.
In turn, `O=c1[nH]sc2nc(N3CCCCC3)ncc12` [Example 32, 6-Piperidin-1-yl-isothiazolo[5,4-d]pyrimidin-3-one] gave a pIC50 in data set [2] of 5.49.
The same measure, in the same setting: to `O=c1c2cnc(N3CCCCC3)nc2sn1CCc1ccccn1` [Example 31, 6-Piperidin-1-yl-2-(2-pyridin-2-yl-ethyl)-isothiazolo [5,4-d]pyrimidin-3-one] belongs 5.89.
For the compound `O=C(O)Cn1sc2ccccc2c1=O` [Example 13, 2-(3-Oxo-3h-benzo[d]isothiazol-2-yl) acetic acid], the “% Zn Extrusion Relative to Control” value in data set [1] is 75%.
`CC[C@H](C)[C@@H](C(=O)O)n1sc2ccccc2c1=O` [Example 2, [S-(R*,R*)]-3-Methyl-2-(3-oxo-3h-benzo[d]isothiazol-2-yl)pentanoic acid]: the CC50 in data set [3] is above 100000 nM. In addition, the pEC50 in the data set with HIV was 4.85. The “% Zn Extrusion Relative to Control” value in data set [1] is 30%.
In the same order, the values of `CC(C)C(C(=O)O)n1sc2ccccc2c1=O` (stereo not shown) [Example 14, 3-Methyl-2-(3-oxo-3h-benzo[d]isothiazol-2-yl)-butanoic acid] are above 100000 nM, 4.68 and 71%.
The compound `CN(C)c1ncc2c(=O)n(CCc3ccccn3)sc2n1` [Example 34, 6-Dimethylamino-2-(2-pyridin-2-yl-ethyl)-isothiazolo [5,4-d]pyrimidin-3-one] gave a pIC50 in data set [2] of 5.77.
Still for that read-out and setting: the same measure for `O=c1c2cnc(-c3ccccc3)nc2sn1CCc1ccccc1` [Example 28, 2-Phenethyl-6-phenyl-isothiazolo[5,4-d]pyrimidin-3-one]: 6.12.
`COc1ccc(-c2ccc3c(=O)n(CCN(C)C)sc3n2)cc1OC` [Example 108]: in data set [4], 10 µM produced 65% inhibition.
Take `CN(C)c1ncc2c(=O)n(CCN3CCCCC3)sc2n1` [Example 35, 6-Dimethylamino-2-(2-piperidin-1-yl-ethyl)-isothiazolo [5,4-d]pyrimidin-3-one]: in data set [2], the pIC50 was 6.80.
On to `NS(=O)(=O)c1ccc(NC(=O)c2ccccc2S)cc1` [Preparation 29, 2-Mercapto-N-(4-sulfamoylphenyl)benzamide], for which, in data set [1], the “% Zn Extrusion Relative to Control” value turned out to be 5.8%.
On to `O=C(O)CCCn1sc2ccccc2c1=O` [Example 17, 4-(3-Oxo-2-h-benzo[d]isothiaz-2-yl) butanoic acid], for which, in data set [3], the CC50 is above 100000 nM. This compound showed a pEC50 in the data set on HIV of 5.24. Further, in data set [1], the “% Zn Extrusion Relative to Control” value was 78%.
In data set [2], `O=c1c2cnc(-c3ccccc3)nc2sn1CCN1CCOCC1` [Example 27, 2-(2-Morpholin-4-yl-ethyl)-6-phenyl-isothiazolo[5,4-d) pyrimidin-3-one] had a pIC50 of 6.57.
On to `O=C(O)Cc1ccc(-n2sc3ccccc3c2=O)cc1` [Example 25, 4-(3-Oxo-3h-benz-[d]isothiazol-2-yl)-phenyl acetic acid], for which the CC50 in data set [3] was found to be 69000 nM. Besides, in the data set on HIV, the pEC50 was 5.24. The “% Zn Extrusion Relative to Control” value in data set [1] turned out to be 89%.
In data set [2], `O=c1c2cnc(-c3ccccc3)nc2sn1CCc1ccccn1` [Example 30, 6-phenyl-2-(2-pyridin-2-yl-ethyl)-isothiazolo[5,4-d] pyrimidin-3-one] showed a pIC50 of 6.54.
Still for that read-out and setting: the same measure for `O=c1c2cnc(-c3ccccc3)nc2sn1Cc1ccccc1` [Example 24, 2-Benzyl-6-phenyl-isothiazolo[5,4-d]pyrimidin-3-one]: 6.52.
As for `Cc1ccnc(-n2sc3ccccc3c2=O)c1` [Example 18, 2-(4-Methylpyridin-2-yl)-3-oxo-3h-benzo[d]isothiazole], the “% Zn Extrusion Relative to Control” value in data set [1] is given as 100%.
In data set [2], `CN(C)c1ncc2c(=O)n(Cc3ccccn3)sc2n1` [Example 23, 6-(Dimethylamino)-2-(2-pyridinylmethyl)isothiazolo [5,4-d]pyrimidin-3-(2H)-one] gave a pIC50 of 6.40.
`O=c1c2cnc(-c3ccccc3)nc2sn1Cc1ccccn1` [Example 29, 6-phenyl-2-pyridin-2-ylmethyl-isothiazolo[5,4-d] pyrimidin-3-one]: the pIC50 in data set [2] is 6.41. This pIC50 and that of the compound before are within 0.2 log units of each other.
The same measure, in the same setting: to `O=c1c2cnc(N3CCOCC3)nc2sn1CCN1CCCCC1` [Example 33, 6-Morpholin-4-yl-2-(2-piperidin-1-yl-ethyl)-isothiazolo [5,4-d]pyrimidin-3-one] belongs 6.92.
